pIC50: −log10 of the molar value. “Also recorded” adds a separate entry of the source. Like-named read-outs stand apart in the source and are kept apart here.
Columns and labels:
[1] = test system: Dengue virus (DenV); assay: Dengue virus plaque assay on Vero cells; format: cell-based, Serotype 2 New Guinea C strain Dengue virus; settings: 300 μM PD
[2] = test system: VSV-Gpp; format: physicochemical; settings: pH 7
[3] = test system: DC-associated HIV-1; format: cell-based; settings: 10 μM PD added to DC 2 h after virus, pseudotyped NL4.3ΔEnv-eGFP/gp160 Env virus, Jurkat T cells, 3 days
[4] = test system: HIV-1 (R5 JR-CSF); assay: Antiviral effect of PD before, during and after HIV-1 exposure (TZM-bl); format: cell-based
[5] = test system: HIV-1 (X4 NL4.3) particles; settings: 10 μM PD, 30 min, 37° C.; 20-70% sucrose gradient
[6] = test system: HCVcc; format: cell-based, HCV
[7] = test system: SIV; assay: SIV infectivity assay in TZM-bl cells (β-galactosidase); format: cell-based; settings: Simian immunodeficiency virus; for IC90: IC90 per footnote, read-out: IC50 (the source's name)
[8] = test system: primary CD4+ T-lymphocytes, macrophages and dendritic cells; assay: Primary cells toxicity testing (LDH release); settings: up to 14 days
[9] = test system: Lactobacillus jensenii; assay: Lactobacillus toxicity testing (CFU); format: cell-based; settings: 37° C.
Procedure: (§1) Reference strains of L. crispatus and L. jensenii were obtained from the ATCC (Manassas, Va.) and cultured on Columbia blood agar plates at 35° C. in air enriched with 6% CO2. Bacterial suspensions were prepared in saline or ACES buffer to a density of 2 McFarland units (˜2×10^8 bacteria/mL), and exposed to PD (300 μM) or DMSO (10%) for 30 minutes at 37° C. After incubation, the cells were serially diluted in ACES buffer, pH 7.0 (Sigma-Aldrich, St. Louis, Mo.) and plated on blood agar plates to quantify colony forming unit per mL (CFU/mL)
(§2) Different bacterial strains were incubated with 300 μM PD or solvent DMSO-containing control media at 37° C. for 30 min and plated on blood agar plates to estimate their corresponding colony forming units per ml (CFU/ml). Less than 1 log difference between control and test CFU is considered non-toxic17.

[10] = test system: Lactobacillus crispatus; assay: Lactobacillus toxicity testing (CFU); format: cell-based; settings: 37° C.
Procedure: as §1, §2

[11] = test system: commensal Lactobacillus species; assay: Lactobacillus toxicity testing, all strains together; format: cell-based
Procedure: as §1, §2

[12] = test system: HepG2, HCT-8, Huh-7, Huh-7.5, TZM, PC3 and 293T cells; format: cell-based, human
[13] = test system: HIV-2; assay: HIV-2 infectivity assay in TZM-bl cells (β-galactosidase); format: cell-based; settings: Human immunodeficiency virus 2, TZM-bl, PD in DMEM with 10% fetal bovine serum, IC90 per footnote, read-out: IC50 (the source's name)
[14] = test system: Sindbis virus (SINV); format: cell-based
[15] = test system: VSV-Gpp; format: physicochemical
[16] = test system: HCVcc; design: species or system HCV
[17] = test system: HCVcc; format: cell-based, HCV; remark: listed apart in the source
[18] = test system: primary HIV-1 isolates; assay: microbe, parasite or virus in culture; format: cell-based; settings: Human immunodeficiency virus 1, TZM-bl
[19] = SIVsyk1.2, PD in DMEM with 10% fetal bovine serum

## N=C1Sc2ccccc2C2=NCCCN12 [PD, PD 404,182]
[1]
  effect on infectivity of DenV: no significant inhibitory effect
[2]
  long-term stability: not stable
[3]
  DC to T cell transmission of HIV-1: prevents subsequent T cell infection with the pseudotyped virus
[4]; 10 μM PD added 1, 2, 4 and 8 h after virus inoculation
  effect on HIV-1 infection: loses its antiviral effect
[4]; 10 μM PD added to cells before the virus
  effect on HIV-1 infection: retains its full potency up to 8 h before the addition of the virus
[4]; 10 μM PD added together with the virus (time zero)
  effect on HIV-1 infection: significantly inhibits HIV-1 infection
[4]; extended (>16 h) preincubation of PD with cells prior to virus inoculation
  effect on HIV-1 infection: significantly reduces the compound's antiviral efficacy
[5]
  sedimentation of HIV-1 capsid and RT in sucrose gradient: viral capsid and RT relocate to the top of the gradient
[6]
  attachment of PD-treated HCVcc to cells: binds to cells comparably to control DMSO-treated virus; also recorded: slight decrease in attachment
[7]; SIVmoc251 32H, PD in DMEM with 10% fetal bovine serum
  IC90: 6.2 µM
[7]; [19]
  pIC50: 5.74
  IC90: 5.4 µM
[8]
  CC50: > 300 µM
[9]; Lactobacillus jensenii ATCC 25258, 30 min
  CFU of Lactobacillus treated with 300 μM PD: 7,533,333 CFU/ml
[9]; Lactobacillus jensenii LBP 28Ab, 30 min
  CFU of Lactobacillus treated with 300 μM PD: 10,033,333 CFU/ml
[9]; Lactobacillus jensenii LBP 28Ab, 300 μM PD, 30 min
  Log(Control)-Log(PD): −0.021
[10]; Lactobacillus crispatus ATCC 33197, 30 min
  CFU of Lactobacillus treated with 300 μM PD: 7,260,000 CFU/ml
[10]; Lactobacillus crispatus ATCC 33197, 300 μM PD, 30 min
  Log(Control)-Log(PD): −0.019
[11]; 300 μM PD, 37° C., 30 min
  effect on Lactobacillus strains: no adverse effect
[11]; vaginal commensal bacteria Lactobacilli
  CC50: > 300 µM
[12]; cervical cancer cells
  CC50: > 300 µM
[12]; seven different human cell lines, including TZM-bl (HeLa)
  CC50: > 300 µM
[13]; HIV-2OD 0310342
  IC90: 4.7 µM
[13]; HIV-27312A
  IC90: 6.6 µM
[14]
  effect on infectivity of SINV: no significant inhibitory effect
[15]
  antiviral activity lost: no activity loss
[15]; pH 4
  stability: highly stable
[16]
  HCVcc virion lysis: Little to no virion lysis
[17]
  inhibition of virus infectivity: > 10 fold
[18]; HIV-1 92HT599 (clade B, X4), PD in DMEM with 10% fetal bovine serum, IC90 per footnote
  IC90: 5.8 µM
[18]; HIV-1 92HT599 (clade B, X4), PD in cervical fluids, IC90 per footnote
  IC90: 6.4 µM
[18]; HIV-1 92HT599 (clade B, X4), PD in seminal plasma, IC90 per footnote
  IC90: 6.31 µM
[18]; HIV-1 92RW021 (clade A, R5), PD in DMEM with 10% fetal bovine serum, IC90 per footnote
  IC90: 3.8 µM
[18]; HIV-1 92RW021 (clade A, R5), PD in cervical fluids, IC90 per footnote
  IC90: 4.4 µM
[18]; HIV-1 92TH003 (clade E, R5), PD in DMEM with 10% fetal bovine serum, IC90 per footnote
  IC90: 8.6 µM
[18]; HIV-1 92TH003 (clade E, R5), PD in cervical fluids, IC90 per footnote
  IC90: 7.8 µM
[18]; HIV-1 92TH003 (clade E, R5), PD in seminal plasma, IC90 per footnote
  IC90: 6.73 µM
[18]; HIV-1 92TH029 (clade B, R5), PD in DMEM with 10% fetal bovine serum, IC90 per footnote
  IC90: 2.8 µM
[18]; HIV-1 92TH029 (clade B, R5), PD in cervical fluids, IC90 per footnote
  IC90: 3.3 µM
[18]; HIV-1 92TH029 (clade B, R5), PD in seminal plasma, IC90 per footnote
  IC90: 2.95 µM
[18]; HIV-1 92UG024 (clade D, X4), PD in DMEM with 10% fetal bovine serum
  pIC50: 6.48
[18]; HIV-1 92UG024 (clade D, X4), PD in DMEM with 10% fetal bovine serum, IC90 per footnote
  IC90: 1.4 µM
[18]; HIV-1 92UG024 (clade D, X4), PD in cervical fluids, IC90 per footnote
  IC90: 1.8 µM
[18]; HIV-1 92UG024 (clade D, X4), PD in seminal plasma, IC90 per footnote
  IC90: 1.68 µM
[18]; HIV-1 92UG029 (clade A, X4), PD in DMEM with 10% fetal bovine serum, IC90 per footnote
  IC90: 4.4 µM
[18]; HIV-1 92UG029 (clade A, X4), PD in cervical fluids, IC90 per footnote
  IC90: 5.3 µM
[18]; HIV-1 92UQ085 (clade D, R5), PD in DMEM with 10% fetal bovine serum, IC90 per footnote
  IC90: 5.3 µM
[18]; HIV-1 92UQ085 (clade D, R5), PD in cervical fluids, IC90 per footnote
  IC90: 6.7 µM
[18]; HIV-1 92UQ085 (clade D, R5), PD in seminal plasma, IC90 per footnote
  IC90: 6.67 µM
[18]; HIV-1 93BR020 (clade F, X4), PD in DMEM with 10% fetal bovine serum, IC90 per footnote
  IC90: 6.8 µM
[18]; HIV-1 93BR020 (clade F, X4), PD in cervical fluids, IC90 per footnote
  IC90: 7.6 µM
[18]; HIV-1 93BR020 (clade F, X4), PD in seminal plasma, IC90 per footnote
  IC90: 7.19 µM
[18]; HIV-1 93BR028 (clade F, R5), PD in DMEM with 10% fetal bovine serum, IC90 per footnote
  IC90: 3.6 µM
[18]; HIV-1 93BR028 (clade F, R5), PD in cervical fluids, IC90 per footnote
  IC90: 4.6 µM
[18]; HIV-1 93BR028 (clade F, R5), PD in seminal plasma, IC90 per footnote
  IC90: 3.72 µM
[18]; HIV-1 93IN101 (clade C, R5), PD in DMEM with 10% fetal bovine serum, IC90 per footnote
  IC90: 5.1 µM
[18]; HIV-1 93IN101 (clade C, R5), PD in cervical fluids, IC90 per footnote
  IC90: 5.6 µM
[18]; HIV-1 93IN101 (clade C, R5), PD in seminal plasma, IC90 per footnote
  IC90: 5.38 µM
[18]; HIV-1 93TH083 (clade E, X4), PD in DMEM with 10% fetal bovine serum, IC90 per footnote
  IC90: 6.3 µM
[18]; HIV-1 93TH083 (clade E, X4), PD in cervical fluids, IC90 per footnote
  IC90: 6.4 µM
[18]; HIV-1 93TH083 (clade E, X4), PD in seminal plasma, IC90 per footnote
  IC90: 6.66 µM
[18]; HIV-1 98IN017 (clade C, X4), PD in cervical fluids, IC90 per footnote
  IC90: 2.4 µM
[18]; HIV-1 98IN017 (clade C, X4), PD in seminal plasma, IC90 per footnote
  IC90: 2.09 µM
[18]; HIV-1 Jv1063 (clade G, R5), PD in DMEM with 10% fetal bovine serum, IC90 per footnote
  IC90: 3.8 µM
[18]; HIV-1 RU132 (clade G, R5), PD in DMEM with 10% fetal bovine serum
  pIC50: 6.10
[18]; HIV-1 RU132 (clade G, R5), PD in DMEM with 10% fetal bovine serum, IC90 per footnote
  IC90: 3.1 µM
[18]; HIV-1 RU132 (clade G, R5), PD in cervical fluids, IC90 per footnote
  IC90: 3.8 µM
[18]; HIV-1 RU132 (clade G, R5), PD in seminal plasma, IC90 per footnote
  IC90: 3.26 µM
[18]; broad range of primary HIV-1 isolates as well as HIV-2
  pIC50: ~6.00
[18]; read-out: IC50, range over the tested subtypes of HIV-1, PD in DMEM, TZM-bl
  pIC50: 5.74 to 6.48
[18]; read-out: IC50, range over the tested subtypes of HIV-1, PD in cervical fluid, TZM-bl
  pIC50: 5.64 to 6.21
[18]; read-out: IC90, range over the tested subtypes of HIV-1, PD in DMEM, TZM-bl
  IC90: 1.4 to 6.6 µM
[18]; read-out: IC90, range over the tested subtypes of HIV-1, PD in cervical fluid, TZM-bl
  IC90: 1.8 to 7.5 µM
[18]; several isolates of HIV-1 and SIV in TZM-bl cells, PD diluted in DMEM or cervical fluid
  pIC50: ~6.00
